Test results as given in patent publication US20150250167A1, “COMPOSITION FOR NOXIOUS ORGANISMS-CONTROLLING AGENT AND METHOD FOR USING THE SAME” (priority 2001, published 2015).

Experiments:
[1] = system: Rice Leafroller (Cnaphalocrosis medinalis); assay: Control of rice leafroller on paddyfield rice by nursery box application, number of injured leaves; format: in vivo; conditions: 0.5 g ai/Box, single agent
Method: (§1) Test for the Control of Small Brown Planthopper (Laodelphax striatellus) and Rice Leafroller (Cnaphalocrosis medinalis) on Paddyfield Rice Plant by Nursery Box Application
(§2) Fifty grams of a granular preparation was applied to rice plant (variety: Nihombare) cultured in a nursery box, after which the rice plant was transplanted to the main paddy field (in the middle of May). The controlling effect against small brown planthopper was evaluated by investigating the number of parasitic insects on 30 hills per each plot, 40 days and 60 days after the transplantation. The controlling effect against rice leafroller was evaluated by investigating the number of injured leaves on 100 hills per each plot, 50 days after the transplantation.

[2] = system: Rice Water Weevil (Lissorhoptrus oryzophilus); assay: Control of rice water weevil on paddyfield rice by nursery box application, extent of injury; format: in vivo; conditions: 0.5 g ai/Box, single agent
[3] = system: Diamondback Moth (Plutella xyloxtella); assay: Control of diamondback moth on cabbage by soil treatment, number of parasitic insects; format: in vivo; conditions: 5 mg ai/hill, 21 days after transplanting
Method: (§3) Test for the Control of Diamondback Moth (Plutella xyloxtella) and Aphid on Cabbage by Soil Treatment
A granular preparation was mixed into bed soil, and the mixture was filled into a cell seedling box and sown with seeds of cabbage (variety: YR Seitoku). Otherwise, cell seedling planted cabbage was treated with the granular agent either by a treatment in the foliage leaf extraction period, or by a pre-transplanting treatment, or by a pricking-in hole treatment, or by a plant foot treatment after the planting. Twenty one days after the transplanting (in the middle of June), the number of parasitic insects was counted on 30 hills in the case of diamondback moth and on 10 hills in the case of aphid.

[4] = system: Resistant Strain of Two-Spotted Spider Mite; conditions: 100 ppm, single agent, 2 days after spraying
[5] = system: Green Peach Aphid (Myzus persicae); assay: Insecticidal test on green peach aphid, spraying of Chinese cabbage, control value; format: in vivo; conditions: 100 ppm, single agent, 6 days after spraying
Aphid = assay: Control of aphid on cabbage by soil treatment, number of parasitic insects; format: in vivo; conditions: 5 mg ai/hill, 21 days after transplanting
Method: as §3
A granular preparation was mixed into bed soil, and the mixture was filled into a cell seedling box and sown with seeds of cabbage (variety: YR Seitoku). Otherwise, cell seedling planted cabbage was treated with the granular agent either by a treatment in the foliage leaf extraction period, or by a pre-transplanting treatment, or by a pricking-in hole treatment, or by a plant foot treatment after the planting. […]

[6] = system: Smaller Tea Tortrix (Adoxophyes orana fosciota); assay: Insecticidal test on smaller tea tortrix, tea leaf dipping; format: in vivo; conditions: single agent 0.3 ppm, 4th instar larvae, 25° C.
Method: Insecticidal Test on Smaller Tea Tortrix (Adoxophyes orana fosciota)
Tea leaves were dipped in a solution of a chemical diluted to a prescribed concentration for 30 seconds. […] Four days and seven days after the treatment, the number of alive insects were counted, from which percentage of death was calculated.

[7] = system: Southern Root-Knot Nematode (Meloidogyne incognita); assay: Test for the effect on southern root-knot nematode, soil blending with granular preparation; format: in vivo; conditions: 300 g ai/10a, single agent, 60 days after treatment
Source text: Test for the Effect on Southern Root-Knot Nematode (Meloidogyne incognita)
Two killograms of a soil polluted with southern root-knot nematode was blended with a predetermined dose of a granular preparation. The mixture was filled into a 1/5,000 are Wagner pot. After sowing melon seeds and carrying out the treatment of the present invention, the pot was left to stand in a greenhouse. Sixty days after the treatment, 25 g of the soil was sampled out, the nematode was separated therefrom according to the method of Berman, and the numbers of nematodes were counted after 48 hours.
In the tables, “ai” means active ingredient.

[8] = system: Brown Rice Planthopper (Nilaparvata lugens); assay: Insecticidal test on brown rice planthopper, rice seedling dipping; format: in vivo; conditions: 100 ppm, single agent; for Death rate (%) After 1 days: after 1 day
Source text: Insecticidal Test on Brown Rice Planthopper (Nilaparvata lugens)
Rice seedlings (variety: Nihombare) were dipped in a solution of an agent diluted to a predetermined concentration for 30 seconds. After air-dryness, each seedling was introduced into a glass-made test tube having a diameter of 1.8 cm and a height of 20 cm, and inoculated with ten 3rd inster nimphs of brown rice planthopper. Then, the test tube was stoppered with cotton. One day after and four days after the treatment, the number of alive insects was counted, based on which the insect death rate was calculated.

[9] = system: Small Brown Planthopper (Laodelphax striatellus); assay: Control of small brown planthopper on paddyfield rice by nursery box application, number of parasitic insects; format: in vivo; conditions: 0.5 g ai/Box, single agent
Method: as §1, §2

[10] = system: Citrus Yellow Thrips (Frankliniella occidentalis); assay: Control of citrus yellow thrips on egg plant by combined use with natural enemy pesticide, number of thrips; format: in vivo; conditions: 100 ppm, spray
Rice Blast = conditions: in vivo
Cutworm = assay: Test for the effect against cutworm on beet, drench, number of injured hills per 100 hills; format: in vivo; conditions: 15 g ai/10a
Method: Test for the Effect Against Cutworm on Beet
Beet seedlings (variety: Monoace S) planted in a paper pot was treated with 3 L/m^2 of a solution of an agent diluted to a predetermined concentration, by the method of drench. Just after the drench, the plant was set. Predetermined days after the setting, the number of injured hills per 100 hills was counted.

[11] = true leaf extraction season treatment

| SMILES | Percentage of injured leaves (%) After 50 days [1] | Extent of injury After 21 days [2] | Number of parasitic insects per 30 hills, Diamondback moth ([3]; plant foot treatment) | Number of parasitic insects per 30 hills, Diamondback moth ([3]; pre-transplanting treatment) | Number of parasitic insects per 30 hills, Diamondback moth ([3]; pricking-in hole treatment) | Number of parasitic insects per 30 hills, Diamondback moth ([3]; soil incorporation) | Number of parasitic insects per 30 hills, Diamondback moth [3, 11] | Death rate (%) [4] | Control degree (%) [5] | Number of parasitic insects per 30 hills, Aphid (Aphid; plant foot treatment) | Number of parasitic insects per 30 hills, Aphid (Aphid; pre-transplanting treatment) | Number of parasitic insects per 30 hills, Aphid (Aphid; pricking-in hole treatment) | Number of parasitic insects per 30 hills, Aphid (Aphid; soil incorporation) | Number of parasitic insects per 30 hills, Aphid (Aphid; [11]) | Death rate (%) After 4 days [6] | Death rate (%) After 7 days [6] | Number of nematodes per 25 g of soil sample [7] | Death rate (%) After 1 days [8] | Death rate (%) After 5 days [8] | Number of parasitic planthoppers per 30 hills After 40 days [9] | other results |
| --- | --- | --- | --- | --- | --- | --- | --- | --- | --- | --- | --- | --- | --- | --- | --- | --- | --- | --- | --- | --- | --- |
| Cc1cc(C(F)(F)F)ccc1NC(=O)c1cccc(I)c1C(=O)NC(C)C [Compound 40] | 0.33% | 39.0 | 3 | 1 | 1 | 2 | 1 | 0% | 0% | 478 | 477 | 486 | 472 | 510 | 0% | 25% | 33 | 0% | 0% | 322 | Number of parasitic planthoppers per 30 hills After 60 days [9]: 358; Number of parasitic insects per 20 leaves, After 60 days [10]: 22; Number of parasitic insects per 20 leaves, After 90 days [10]: 31; Number of parasitic insects per 20 leaves, After 120 days [10]: 52; Areal rate of disease spot (%) After 60 days (Rice Blast): 7.9%; Number of injured hills per 100 hills, After 60 days (Cutworm): 0; Number of injured hills per 100 hills, After 90 days (Cutworm): 9; Number of injured hills per 100 hills, After 120 days (Cutworm): 23 |
| Cc1cc(C(F)(F)C(F)(F)F)ccc1NC(=O)c1cccc(I)c1C(=O)NC(C)C [Compound 41] | 0.35% | 43.2 | 2 | 1 | 2 | 3 | 2 | 0% | 0% | 456 | 458 | 511 | 457 | 495 | 0% | 30% | 31 | 0% | 0% | 333 | Number of parasitic planthoppers per 30 hills After 60 days [9]: 385; Number of parasitic insects per 20 leaves, After 60 days [10]: 18; Number of parasitic insects per 20 leaves, After 90 days [10]: 29; Number of parasitic insects per 20 leaves, After 120 days [10]: 59; Areal rate of disease spot (%) After 60 days (Rice Blast): 8.5%; Number of injured hills per 100 hills, After 60 days (Cutworm): 0; Number of injured hills per 100 hills, After 90 days (Cutworm): 7; Number of injured hills per 100 hills, After 120 days (Cutworm): 21 |
| Cc1cc(C(F)(F)C(F)(F)C(F)(F)F)ccc1NC(=O)c1cccc(I)c1C(=O)NC(C)C [Compound 42] | 0.22% | 39.5 | 3 | 3 | 1 | 3 | 2 | 0% | 0% | 498 | 435 | 473 | 475 | 485 | 0% | 30% | 28 | 0% | 0% | 345 | Number of parasitic planthoppers per 30 hills After 60 days [9]: 389; Number of parasitic insects per 20 leaves, After 60 days [10]: 19; Number of parasitic insects per 20 leaves, After 90 days [10]: 25; Number of parasitic insects per 20 leaves, After 120 days [10]: 50; Areal rate of disease spot (%) After 60 days (Rice Blast): 8.3%; Number of injured hills per 100 hills, After 60 days (Cutworm): 0; Number of injured hills per 100 hills, After 90 days (Cutworm): 8; Number of injured hills per 100 hills, After 120 days (Cutworm): 22 |
